Reference: US10221227B2, “Peptide for promoting osteogenic differentiation or vascularization and use thereof” (INDUSTRY FOUNDATION OF CHONNAM NATIONAL UNIVERSITY, priority 2015, dated 2019)
Ends that are not written are not given here.

Columns and labels:
alkaline phosphatase = settings: at 1 μg/μL of BFP 5; RT-PCR / enzyme activity kit
Osterix = Osterix expression at varied concentrations of BFP 5 (FIG. 8); assay type: cell-based
mesenchymal stem cells = assay: Measurement of mineralization by Alizarin Red staining; assay type: cell-based, Balb/c mouse; settings: cells added with 1 μg/μL of BFP 5; tested at 0.01, 0.1, 1 and 10 μg/μL, osteogenic differentiation medium, two additional days
Protocol: Mesenchymal stem cells (1×10^4), which were cloned from Balb/c mouse bone marrow stromal cells) were aliquoted into 10% FBS-containing DMEM and cultured in an atmosphere (about 37° C., 5% CO2) for 3 days, and thereby the mesenchymal stem cells to be used as osteoblasts in the present experiment were prepared. Osteogenic differentiation medium (hereinafter, “ODM”) consists of DMEM which contains 50 μg/mL of ascorbic acid, 10^−8 M dexamethasone, 10 mM β-glycerophosphate, etc.
The differentiation of the mesenchymal stem cells into osteoblasts causes calcium accumulation. Here, the degree of calcium accumulation refers to the degree of differentiation of osteoblasts, and the degree of accumulation of calcium ions can be confirmed by observing the degree of staining of the cells that are stained red, via Alizarin Red staining. In this regard, the mineralization was measured via Alizarin Red staining. That is, as the differentiation into osteoblasts are promoted there are more regions that can be stained by Alizarin Red. Accordingly, the degree of osteogenic differentiation can be confirmed by adding Alizarin Red to the osteogenic differentiation medium, treating with the peptide of SEQ ID NO: 1 (BFP 5), and observing the degree of Alizarin Red staining. […]

VEGF = assay: Effect on vascularization: expression of VEGF (FIG. 9); assay type: cell-based; settings: cells treated with BFP 5; alongside VEGF, FGF, SDF-1a, SDF-1g
[1] = tested on: Runx2, alkaline phosphatase, Osteopontin, collagen type 1, DLX5, and Osterix; assay: Expression of osteoblast-specific genes under a fluorescent microscope using antibodies (FIG. 5); assay type: cell-based; settings: cells treated with BFP 5, fluorescent microscope using antibodies
Source text: An osteoblast-specific protein is expressed upon differentiation into osteoblasts. When the antibody to the protein was reacted to cells and the degree of binding was confirmed by a fluorescent microscope.

[2] = tested on: alkaline phosphatase and Osterix; assay: Level of proteins expressed in osteoblasts (FIG. 6); assay type: cell-based; settings: FIG. 6, protein level

PPRACPTARALCEIR (cysteine pairing not given here) [SDF-1d-derived peptide consisting of 15 amino acids, named bone forming peptide 5]
expression of alkaline phosphatase (alkaline phosphatase): strong expression | concentration of BFP 5 at which expression (Osterix) is at the highest level (Osterix): 0.1 µg/mL | Alizarin Red staining (mineralization accumulated via osteogenic differentiation) (mesenchymal stem cells): strongest staining | expression of VEGF, a protein associated with vascularization (VEGF): strong expression | expression of DLX5 [1]: strongly expressed | expression of Osteopontin [1]: strongly expressed | expression of Osterix [1]: strongly expressed | expression of Runx2 [1]: strongly expressed | expression of alkaline phosphatase [1]: strongly expressed | expression of collagen type 1 [1]: strongly expressed | Osterix protein expressed in osteoblasts [2]: strongly expressed | alkaline phosphatase protein expressed in osteoblasts [2]: strongly expressed
